Ends that are not written are not given here.
Target: T1, human α-thrombin (Homo sapiens, UniProt P00734)
T1 construct: Bovine and human α-thrombins were supplied by Haematologic Technologies Inc (VT, USA); cleaved off efficiently by thrombin to generate the free N-terminus of the A-chain of human thrombin; purchased Haematologic Technologies Inc (VT, USA)
Assay: Clotting assay: fibrinogen clotting by human thrombin, concentration doubling the clotting time (DCT) = IC50
Format: biochemical
Experimental: The clotting assays were carried out by use of the protocols described previously (DiMaio, J., Gibbs, B., Munn, D., Lefebvre, J., Ni, F., and Konishi, Y. (1990) J. Biol. Chem. 265, 21698-21703; and Witting, J. I., Bourdon, P., Brezniak, D. V., Maraganore, J. M., and Fenton, J. W. (1992) Biochem. J. 283 (Pt 3), 737-743) The assay employs bovine plasma fibrinogen dissolved at 0.1% in 50 mM Tris-Cl, 100 mM NaCl, 0.1% PEG-8000 at pH 7.6 (i.e. the clotting buffer). Each assay mixture contained a certain concentration of the peptide, and the reaction was started by the addition of human thrombin to a final concentration of 0.1 NIH unit/ml. Optical absorbance of the assay mixtures was measured at 420 nm and 37° C. using the Spectramax™ plate reader. The onset clotting time was determined as an intersection of the baseline and the initial slope of the O.D. change as a result of fibrin clot formation. The concentration of a peptide needed to double the clotting time (DCT) was defined as IC50. Peptide concentrations were determined by comparing the O.D.280 values of peptide stock solutions in the clotting buffer (vide supra) with the predicted extinction coefficient for each peptide (Gill, S. C. and von Hippel, P. H. (1989) Anal. Biochem. 182, 319-326).
The peptide concentration for doubling the clotting time (DCT) was defined as the IC50 value.

CC[C@H](C)[C@H](NC(=O)[C@H](CCC(=O)O)NC(=O)[C@H](CCC(=O)O)NC(=O)[C@H](Cc1ccccc1)NC(=O)[C@H](CC(=O)O)NC(=O)CNC(=O)[C@H](CC(=O)O)NC(=O)[C@H](CC(N)=O)NC(=O)[C@H](Cc1c[nH]cn1)NC(=O)[C@H](CC(=O)O)NC(=O)[C@H](CCC(N)=O)NC(=O)[C@@H]1CCCN1C(=O)[C@H](CCCNC(=N)N)NC(=O)[C@@H]1CCCN1C(=O)[C@H](CCC(=O)O)NC(=O)[C@@H](N)Cc1ccccc1)C(=O)N1CCC[C@H]1C(=O)N[C@@H](CCC(=O)O)C(=O)N[C@@H](CCC(=O)O)C(=O)N[C@@H](Cc1ccc(O)cc1)C(=O)N[C@@H](CC(C)C)C(=O)N[C@@H](CCC(N)=O)C(=O)O [FE22-D]
IC50: > 125 nM

WDPRPQRHNDGDYEPIPEEYLQ [WD22-R-YP^(d)]
IC50: 4.8 ± 0.8 nM

CC[C@H](C)[C@H](NC(=O)[C@H](CCC(=O)O)NC(=O)[C@H](CCC(=O)O)NC(=O)[C@H](Cc1ccccc1)NC(=O)[C@H](CC(=O)O)NC(=O)CNC(=O)[C@H](CC(=O)O)NC(=O)[C@H](CC(N)=O)NC(=O)[C@H](Cc1c[nH]cn1)NC(=O)[C@H](CO)NC(=O)[C@H](CCC(N)=O)NC(=O)[C@@H]1CCCN1C(=O)[C@H](CCCNC(=N)N)NC(=O)[C@@H]1CCCN1C(=O)[C@H](Cc1c[nH]cn1)NC(=O)[C@@H](N)Cc1ccccc1)C(=O)N1CCC[C@H]1C(=O)N[C@@H](CCC(=O)O)C(=O)N[C@@H](CCC(=O)O)C(=O)N[C@@H](Cc1ccc(O)cc1)C(=O)N[C@@H](CC(C)C)C(=O)N[C@@H](CCC(N)=O)C(=O)O [FH22]
IC50: > 150 nM

CC[C@H](C)[C@H](N)C(=O)N[C@@H](CCC(N)=O)C(=O)N1CCC[C@H]1C(=O)N[C@@H](CCCNC(=N)N)C(=O)N1CCC[C@H]1C(=O)N[C@@H](CCC(N)=O)C(=O)N[C@H](C(=O)N[C@@H](Cc1c[nH]cn1)C(=O)N[C@@H](CC(N)=O)C(=O)N[C@@H](CC(=O)O)C(=O)NCC(=O)N[C@@H](CC(=O)O)C(=O)N[C@@H](Cc1ccccc1)C(=O)N[C@@H](CCC(=O)O)C(=O)N[C@@H](CCC(=O)O)C(=O)N[C@H](C(=O)N1CCC[C@H]1C(=O)N[C@@H](CCC(=O)O)C(=O)N[C@@H](CCC(=O)O)C(=O)N[C@@H](Cc1ccc(O)cc1)C(=O)N[C@@H](CC(C)C)C(=O)N[C@@H](CCC(N)=O)C(=O)O)[C@@H](C)CC)[C@@H](C)CC [IQ22-I]
IC50: 39 ± 3 nM

CC[C@H](C)[C@H](NC(=O)[C@H](CCC(=O)O)NC(=O)[C@H](CCC(=O)O)NC(=O)[C@H](Cc1ccccc1)NC(=O)[C@H](CC(=O)O)NC(=O)CNC(=O)[C@H](CC(=O)O)NC(=O)[C@H](CC(N)=O)NC(=O)[C@H](Cc1c[nH]cn1)NC(=O)[C@H](CO)NC(=O)[C@H](CCC(N)=O)NC(=O)[C@@H]1CCCN1C(=O)[C@H](CCCNC(=N)N)NC(=O)[C@@H]1CCCN1C(=O)[C@H](CCC(=O)O)NC(=O)[C@@H](N)Cc1ccccc1)C(=O)N1CCC[C@H]1C(=O)N[C@@H](CCC(=O)O)C(=O)N[C@@H](CCC(=O)O)C(=O)N[C@@H](Cc1ccc(O)cc1)C(=O)N[C@@H](CC(C)C)C(=O)N[C@@H](CCC(N)=O)C(=O)O [FE22]
IC50: 80 nM

WDPRPQRHNDGDFEPIPEEYLQ [WD22-R-P^(d)]
IC50: 8.1 ± 1.1 nM

CC[C@H](C)[C@H](NC(=O)[C@H](CCC(=O)O)NC(=O)[C@H](CCC(=O)O)NC(=O)[C@H](Cc1ccccc1)NC(=O)[C@H](CC(=O)O)NC(=O)CNC(=O)[C@H](CC(=O)O)NC(=O)[C@H](CC(N)=O)NC(=O)[C@H](Cc1c[nH]cn1)NC(=O)[C@H](CC(=O)O)NC(=O)[C@H](CCC(N)=O)NC(=O)[C@@H]1CCCN1C(=O)[C@H](CCCNC(=N)N)NC(=O)[C@@H]1CCCN1C(=O)[C@H](CC(=O)O)NC(=O)[C@@H](N)Cc1ccccc1)C(=O)N1CCC[C@H]1C(=O)N[C@@H](CCC(=O)O)C(=O)N[C@@H](CCC(=O)O)C(=O)N[C@@H](Cc1ccc(O)cc1)C(=O)N[C@@H](CC(C)C)C(=O)N[C@@H](CCC(N)=O)C(=O)O [FD22-D]
IC50: 53 ± 2 nM
